According to ChEMBL document CHEMBL6087454, “Identification of Novel Organo-Se BTSA-Based Derivatives as Potent, Reversible, and Selective PPARγ Covalent Modulators for Antidiabetic Drug Discovery” (J Med Chem, 2025):
pIC50, pKi: −log10 of the molar value. Calls of active or inactive are those of the source. The rule behind the calls is not given here.

Assays:
[1] = target: T1, Peroxisome proliferator-activated receptor gamma (Homo sapiens, UniProt P37231); experiment: Displacement of fluormone pan-PPAR green from recombinant GST-tagged human PPAR-gamma ligand binding domain (E235 to Y505 residues) extracted from Escherichia coli BL21 (DE3) cells by TR-FRET assay
T1 sequence (P37231 whole entry): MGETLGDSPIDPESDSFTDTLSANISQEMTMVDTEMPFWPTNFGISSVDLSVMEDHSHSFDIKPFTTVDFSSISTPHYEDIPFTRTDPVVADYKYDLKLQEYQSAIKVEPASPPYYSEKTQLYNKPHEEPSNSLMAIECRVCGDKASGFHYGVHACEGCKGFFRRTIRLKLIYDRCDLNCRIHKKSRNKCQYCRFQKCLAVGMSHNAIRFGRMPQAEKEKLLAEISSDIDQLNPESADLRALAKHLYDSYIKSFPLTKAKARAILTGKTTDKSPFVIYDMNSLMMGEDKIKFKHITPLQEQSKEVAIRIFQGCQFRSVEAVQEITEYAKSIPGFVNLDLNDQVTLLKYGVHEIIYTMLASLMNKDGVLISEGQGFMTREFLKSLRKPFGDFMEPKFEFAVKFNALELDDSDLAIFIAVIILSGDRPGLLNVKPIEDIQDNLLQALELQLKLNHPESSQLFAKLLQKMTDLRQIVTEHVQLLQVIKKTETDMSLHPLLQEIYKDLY

[2] = target: T1, Peroxisome proliferator-activated receptor gamma; experiment: Binding affinity to recombinant GST-tagged human PPAR-gamma ligand binding domain (E235 to Y505 residues) extracted from Escherichia coli BL21 (DE3) cells assessed as inhibition constant in presence of fluormone pan-PPAR green tracer by TR-FRET assay
Homo sapiens = species on record: Homo sapiens; experiment: Binding affinity to PPAR-beta (unknown origin) at 0.5 uM in presence of fluormone pan-PPAR green tracer by TR-FRET assay
3T3-L1 [3] = experiment: Inhibition of adipogenesis in mouse 3T3-L1 cells assessed as downregulation of CD36 gene expression at 1 uM measured after 48 hrs by RT-qPCR analysis; type: functional, cell-based
3T3-L1 [4] = experiment: Inhibition of adipogenesis in mouse 3T3-L1 cells assessed as downregulation of C/EBPalpha gene expression at 1 uM measured after 48 hrs by RT-qPCR analysis; type: functional, cell-based
3T3-L1 [5] = experiment: Insulin sensitizing activity in mouse 3T3-L1 cells assessed as upregulation of Glut4 gene expression at 1 uM measured after 48 hrs by RT-qPCR analysis; type: functional, cell-based
Mus musculus [6] = experiment: Antidiabetic activity in male db/db mouse model assessed as reduction in fasting blood glucose level administered intraperitoneally for 4 weeks; type: functional, organism-based; settings: dose 2.5-10 mg/kg/day, route ip
[7] = Toxicity in male db/db mouse model assessed as body weight gain at 2.5 to 10 mg/kg/day, ip administered for 4 weeks; type: organism-based; settings: in vivo, 672 h, dose 2.5-10 mg/kg/day
Mus musculus [8] = experiment: Antidiabetic activity in male db/db mouse model assessed as improvement in glucose tolerance at 2.5 to 10 mg/kg/day, ip preadministered for 4 weeks followed by glucose administration after 4 to 6 hrs of fasting and measured after 120 mins by intraperitoneal glucose tolerance test; type: functional, organism-based; settings: dose 2.5-10 mg/kg/day
Mus musculus [9] = experiment: Antidiabetic activity in male db/db mouse model assessed as improvement in insulin tolerance at 2.5 to 10 mg/kg/day, ip preadministered for 4 weeks followed by glucose administration after 4 to 6 hrs of fasting and measured after 120 mins by intraperitoneal insulin tolerance test; type: functional, organism-based; settings: dose 2.5-10 mg/kg/day
[10] = Toxicity in male db/db mouse model assessed as effect on liver morphology at 2.5 to 5 mg/kg, ip administered for 4 weeks; type: organism-based; settings: in vivo, 672 h, dose 2.5-5 mg/kg
Mus musculus [11] = experiment: Antidiabetic activity in male db/db mouse model assessed as increase in ANGPTL4 protein abundance in white adipose tissue at 2.5 to 10 mg/kg/day, ip administered for 4 weeks by Western blotting analysis; type: functional, organism-based; settings: dose 2.5-10 mg/kg/day
Mus musculus [12] = experiment: Antidiabetic activity in male db/db mouse model assessed as increase in Glut4 protein abundance in white adipose tissue at 2.5 to 10 mg/kg/day, ip administered for 4 weeks by Western blotting analysis; type: functional, organism-based; settings: dose 2.5-10 mg/kg/day
Mus musculus [13] = experiment: Antidiabetic activity in male db/db mouse model assessed as decrease in PDK4 protein abundance in white adipose tissue at 2.5 to 10 mg/kg/day, ip administered for 4 weeks by Western blotting analysis; type: functional, organism-based; settings: dose 2.5-10 mg/kg/day
Mus musculus [14] = experiment: Antidiabetic activity in male db/db mouse model assessed as decrease in PDK4 protein abundance in liver at 2.5 to 10 mg/kg/day, ip administered for 4 weeks by Western blotting analysis; type: functional, organism-based; settings: dose 2.5-10 mg/kg/day
Mus musculus [15] = experiment: Effect on cdk5 protein expression in male db/db mouse white adipose tissue at 2.5 to 10 mg/kg/day, ip administered for 4 weeks by Western blotting analysis; type: functional, organism-based; settings: dose 2.5-10 mg/kg/day
Mus musculus [16] = experiment: Antidiabetic activity in male db/db mouse model assessed as upregulation of Glut4 gene expression in white adipose tissue at 2.5 to 10 mg/kg/day, ip administered for 4 weeks by RT-qPCR analysis; type: functional, organism-based; settings: dose 2.5-10 mg/kg/day
Mus musculus [17] = experiment: Antidiabetic activity in male db/db mouse model assessed as downregulation of PTP1B gene expression in white adipose tissue at 2.5 to 10 mg/kg/day, ip administered for 4 weeks by RT-qPCR analysis; type: functional, organism-based; settings: dose 2.5-10 mg/kg/day
Mus musculus [18] = experiment: Antidiabetic activity in male db/db mouse model assessed as downregulation of SOCS3 gene expression in white adipose tissue at 2.5 to 10 mg/kg/day, ip administered for 4 weeks by RT-qPCR analysis; type: functional, organism-based; settings: dose 2.5-10 mg/kg/day
Mus musculus [19] = experiment: Antidiabetic activity in male db/db mouse model assessed as downregulation of PPARgamma gene expression in white adipose tissue at 2.5 to 10 mg/kg/day, ip administered for 4 weeks by RT-qPCR analysis; type: functional, organism-based; settings: dose 2.5-10 mg/kg/day
Mus musculus [20] = experiment: Antidiabetic activity in male db/db mouse model assessed as downregulation of LPL gene expression in white adipose tissue at 2.5 to 10 mg/kg/day, ip administered for 4 weeks by RT-qPCR analysis; type: functional, organism-based; settings: dose 2.5-10 mg/kg/day
Mus musculus [21] = experiment: Antidiabetic activity in male db/db mouse model assessed as downregulation of C/EBPalpha gene expression in white adipose tissue at 2.5 to 10 mg/kg/day, ip administered for 4 weeks by RT-qPCR analysis; type: functional, organism-based; settings: dose 2.5-10 mg/kg/day
Mus musculus [22] = experiment: Antidiabetic activity in male db/db mouse model assessed as upregulation of adiponectin gene expression in liver at 2.5 to 10 mg/kg/day, ip administered for 4 weeks by RT-qPCR analysis; type: functional, organism-based; settings: dose 2.5-10 mg/kg/day
Mus musculus [23] = experiment: Antidiabetic activity in male db/db mouse model assessed as upregulation of Glut4 gene expression in liver at 2.5 to 10 mg/kg/day, ip administered for 4 weeks by RT-qPCR analysis; type: functional, organism-based; settings: dose 2.5-10 mg/kg/day
Mus musculus [24] = experiment: Antidiabetic activity in male db/db mouse model assessed as downregulation of PPARgamma gene expression in liver at 2.5 to 10 mg/kg/day, ip administered for 4 weeks by RT-qPCR analysis; type: functional, organism-based; settings: dose 2.5-10 mg/kg/day
Mus musculus [25] = experiment: Antidiabetic activity in male db/db mouse model assessed as downregulation of LPL gene expression in liver at 2.5 to 10 mg/kg/day, ip administered for 4 weeks by RT-qPCR analysis; type: functional, organism-based; settings: dose 2.5-10 mg/kg/day

Cc1ccc(S(=O)(=O)Oc2ccc(S3(=O)=N[Se]c4cc(OS(=O)(=O)c5ccc(C)cc5)ccc43)cc2)cc1 (stereo unspecified)
pIC50 [1]: 6.46
pKi [2]: 6.91
Activity (Homo sapiens): inactive
inhibition (3T3-L1 [3]): Active
inhibition (3T3-L1 [4]): Active
Activity (3T3-L1 [5]): Active
Activity (Mus musculus [6]): Dose-dependent-effect
Activity [7]: Non-toxic
Activity (Mus musculus [8]): Active; Superior To That Of Reference Compound Gw9662
Activity (Mus musculus [9]): Active
Activity [10]: Non-toxic
Activity (Mus musculus [11]): Active
Activity (Mus musculus [12]): Active
Activity (Mus musculus [13]): Active
Activity (Mus musculus [14]): Active
Activity (Mus musculus [15]): inactive
Activity (Mus musculus [16]): Active
Activity (Mus musculus [17]): Active
Activity (Mus musculus [18]): Active
Activity (Mus musculus [19]): Active
Activity (Mus musculus [20]): Active
Activity (Mus musculus [21]): Active
Activity (Mus musculus [22]): Active
Activity (Mus musculus [23]): Active
Activity (Mus musculus [24]): Active
Activity (Mus musculus [25]): Active
